The compounds below were run on HEK293 cells (assay: Preliminary screening as DNA vectors, GFP transfection of HEK293 cells). Conditions: amino lipid/DOPE liposome with 75 ng plasmid DNA (psin-EGFP-IRES-Puro); number of GFP-expressing cells divided by total nuclei (Hoechst).
Assay type: cell-based
How it was run: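 Lipid + DOPE liposomes (NaOAc, pH 5.6) complexed w/ 75 ng psin-EGFP-IRES-Puro, 30 min RT; added to 3-5×10^4 HEK293/well, 37° C. Hoechst 0.2 μg/mL at 20-24 h, imaged after further 20-24 h. Efficiency = GFP+ cells / total nuclei.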

Row | SMILES | Absolute DNA transfection efficiency in HEK293 cells
1 | CCCCCCCCCCCCCCCCCCNc1nc(NCCCN2CCOCC2)nc(SCCCCCCCC)n1 [S8N18 D8] | 5.1%
2 | CCCCCCCCCCCCCCCCCCNc1nc(NCCCN2CCN(C)CC2)nc(SCCCCCCCC)n1 [S8N18 D9] | 5.3%
3 | CCCCCCCCCCCCCCCCCCNc1nc(NCC2CCN(C)CC2)nc(SCCCCCCCC)n1 [S8N18 D10] | 9.6%
4 | CCCCCCCCSc1nc(NCCN(C)C)nc(SCCCCCCCC)n1 [S8S8 D1] | 17.9%
5 | CCCCCCCCSc1nc(NCCN2CCOCC2)nc(SCCCCCCCC)n1 [S8S8 D2] | 17.6%
6 | CCCCCCCCSc1nc(NCCN2CCCC2)nc(SCCCCCCCC)n1 [S8S8 D3] | 10.4%
7 | CCCCCCCCSc1nc(NCCN2CCCCC2)nc(SCCCCCCCC)n1 [S8S8 D4] | 11.2%
8 | CCCCCCCCSc1nc(NCCN2CCN(C)CC2)nc(SCCCCCCCC)n1 [S8S8 D5] | 10.2%
9 | CCCCCCCCSc1nc(NCCCN(C)C)nc(SCCCCCCCC)n1 [S8S8 D6] | 5.1%
10 | CCCCCCCCSc1nc(NCCN(CC)CC)nc(SCCCCCCCC)n1 [S8S8 D7] | 10.1%
11 | CCCCCCCCSc1nc(NCCCN2CCOCC2)nc(SCCCCCCCC)n1 [S8S8 D8] | 13.8%
12 | CCCCCCCCSc1nc(NCCCN2CCN(C)CC2)nc(SCCCCCCCC)n1 [S8S8 D9] | 12.1%
13 | CCCCCCCCSc1nc(NCC2CCN(C)CC2)nc(SCCCCCCCC)n1 [S8S8 D10] | 27.9%
14 | CCCCCCCCCSc1nc(NCCN(C)C)nc(SCCCCCCCC)n1 [S8S9 D1] | 15.6%
15 | CCCCCCCCCSc1nc(NCCN2CCOCC2)nc(SCCCCCCCC)n1 [S8S9 D2] | 37.0%
16 | CCCCCCCCCSc1nc(NCCN2CCCC2)nc(SCCCCCCCC)n1 [S8S9 D3] | 15.1%
17 | CCCCCCCCCSc1nc(NCCN2CCCCC2)nc(SCCCCCCCC)n1 [S8S9 D4] | 13.2%
18 | CCCCCCCCCSc1nc(NCCN2CCN(C)CC2)nc(SCCCCCCCC)n1 [S8S9 D5] | 5.8%
19 | CCCCCCCCCSc1nc(NCCCN(C)C)nc(SCCCCCCCC)n1 [S8S9 D6] | 6.3%
20 | CCCCCCCCCSc1nc(NCCN(CC)CC)nc(SCCCCCCCC)n1 [S8S9 D7] | 29.3%
21 | CCCCCCCCCSc1nc(NCCCN2CCOCC2)nc(SCCCCCCCC)n1 [S8S9 D8] | 16.0%
22 | CCCCCCCCCSc1nc(NCCCN2CCN(C)CC2)nc(SCCCCCCCC)n1 [S8S9 D9] | 23.5%
23 | CCCCCCCCCSc1nc(NCC2CCN(C)CC2)nc(SCCCCCCCC)n1 [S8S9 D10] | 27.9%

Row | SMILES | Absolute DNA transfection efficiency in HEK293 cells
24 | CCCCCCCCCCSc1nc(NCCN(C)C)nc(SCCCCCCCC)n1 [S8S10 D1] | 16.3%
25 | CCCCCCCCCCSc1nc(NCCN2CCOCC2)nc(SCCCCCCCC)n1 [S8S10 D2] | 18.8%
26 | CCCCCCCCCCSc1nc(NCCN2CCCC2)nc(SCCCCCCCC)n1 [S8S10 D3] | 8.9%
27 | CCCCCCCCCCSc1nc(NCCN2CCCCC2)nc(SCCCCCCCC)n1 [S8S10 D4] | 8.3%
28 | CCCCCCCCCCSc1nc(NCCN2CCN(C)CC2)nc(SCCCCCCCC)n1 [S8S10 D5] | 19.5%
29 | CCCCCCCCCCSc1nc(NCCCN(C)C)nc(SCCCCCCCC)n1 [S8S10 D6] | 9.3%
30 | CCCCCCCCCCSc1nc(NCCN(CC)CC)nc(SCCCCCCCC)n1 [S8S10 D7] | 11.4%
31 | CCCCCCCCCCSc1nc(NCCCN2CCOCC2)nc(SCCCCCCCC)n1 [S8S10 D8] | 13.7%
32 | CCCCCCCCCCSc1nc(NCCCN2CCN(C)CC2)nc(SCCCCCCCC)n1 [S8S10 D9] | 25.6%
33 | CCCCCCCCCCSc1nc(NCC2CCN(C)CC2)nc(SCCCCCCCC)n1 [S8S10 D10] | 26.2%
34 | CCCCCCCCCCCSc1nc(NCCN(C)C)nc(SCCCCCCCC)n1 [S8S11 D1] | 9.2%
35 | CCCCCCCCCCCSc1nc(NCCN2CCOCC2)nc(SCCCCCCCC)n1 [S8S11 D2] | 17.9%
36 | CCCCCCCCCCCSc1nc(NCCN2CCCC2)nc(SCCCCCCCC)n1 [S8S11 D3] | 6.1%
37 | CCCCCCCCCCCSc1nc(NCCN2CCCCC2)nc(SCCCCCCCC)n1 [S8S11 D4] | 8.5%
38 | CCCCCCCCCCCSc1nc(NCCN2CCN(C)CC2)nc(SCCCCCCCC)n1 [S8S11 D5] | 10.6%
39 | CCCCCCCCCCCSc1nc(NCCCN(C)C)nc(SCCCCCCCC)n1 [S8S11 D6] | 7.9%
40 | CCCCCCCCCCCSc1nc(NCCN(CC)CC)nc(SCCCCCCCC)n1 [S8S11 D7] | 10.3%
41 | CCCCCCCCCCCSc1nc(NCCCN2CCOCC2)nc(SCCCCCCCC)n1 [S8S11 D8] | 15.3%
42 | CCCCCCCCCCCSc1nc(NCCCN2CCN(C)CC2)nc(SCCCCCCCC)n1 [S8S11 D9] | 12.8%
43 | CCCCCCCCCCCSc1nc(NCC2CCN(C)CC2)nc(SCCCCCCCC)n1 [S8S11 D10] | 42.4%
44 | CCCCCCCCCCCCSc1nc(NCCN(C)C)nc(SCCCCCCCC)n1 [S8S12 D1] | 10.7%
45 | CCCCCCCCCCCCSc1nc(NCCN2CCOCC2)nc(SCCCCCCCC)n1 [S8S12 D2] | 16.1%
46 | CCCCCCCCCCCCSc1nc(NCCN2CCCC2)nc(SCCCCCCCC)n1 [S8S12 D3] | 10.9%

Row | SMILES | Absolute DNA transfection efficiency in HEK293 cells
47 | CCCCCCCCCCCCSc1nc(NCCN2CCCCC2)nc(SCCCCCCCC)n1 [S8S12 D4] | 10.8%
48 | CCCCCCCCCCCCSc1nc(NCCN2CCN(C)CC2)nc(SCCCCCCCC)n1 [S8S12 D5] | 24.8%
49 | CCCCCCCCCCCCSc1nc(NCCCN(C)C)nc(SCCCCCCCC)n1 [S8S12 D6] | 12.6%
50 | CCCCCCCCCCCCSc1nc(NCCN(CC)CC)nc(SCCCCCCCC)n1 [S8S12 D7] | 9.3%
51 | CCCCCCCCCCCCSc1nc(NCCCN2CCOCC2)nc(SCCCCCCCC)n1 [S8S12 D8] | 34.4%
52 | CCCCCCCCCCCCSc1nc(NCCCN2CCN(C)CC2)nc(SCCCCCCCC)n1 [S8S12 D9] | 3.5%
53 | CCCCCCCCCCCCSc1nc(NCC2CCN(C)CC2)nc(SCCCCCCCC)n1 [S8S12 D10] | 23.5%
54 | CCCCCCCCCCCCN(CCCCCCCCCCCC)c1nc(NCCN(C)C)nc(SCCCCCCCC)n1 [S8^2N12 D1] | 0.0%
55 | CCCCCCCCCCCCN(CCCCCCCCCCCC)c1nc(NCCN2CCOCC2)nc(SCCCCCCCC)n1 [S8^2N12 D2] | 0.0%
56 | CCCCCCCCCCCCN(CCCCCCCCCCCC)c1nc(NCCN2CCCC2)nc(SCCCCCCCC)n1 [S8^2N12 D3] | 0.1%
57 | CCCCCCCCCCCCN(CCCCCCCCCCCC)c1nc(NCCN2CCCCC2)nc(SCCCCCCCC)n1 [S8^2N12 D4] | 0.0%
58 | CCCCCCCCCCCCN(CCCCCCCCCCCC)c1nc(NCCN2CCN(C)CC2)nc(SCCCCCCCC)n1 [S8^2N12 D5] | 0.8%
59 | CCCCCCCCCCCCN(CCCCCCCCCCCC)c1nc(NCCCN(C)C)nc(SCCCCCCCC)n1 [S8^2N12 D6] | 0.5%
60 | CCCCCCCCCCCCN(CCCCCCCCCCCC)c1nc(NCCN(CC)CC)nc(SCCCCCCCC)n1 [S8^2N12 D7] | 0.1%
61 | CCCCCCCCCCCCN(CCCCCCCCCCCC)c1nc(NCCCN2CCOCC2)nc(SCCCCCCCC)n1 [S8^2N12 D8] | 0.0%
62 | CCCCCCCCCCCCN(CCCCCCCCCCCC)c1nc(NCCCN2CCN(C)CC2)nc(SCCCCCCCC)n1 [S8^2N12 D9] | 0.7%
63 | CCCCCCCCCCCCN(CCCCCCCCCCCC)c1nc(NCC2CCN(C)CC2)nc(SCCCCCCCC)n1 [S8^2N12 D10] | 0.8%
64 | CCCCCCCCCSc1nc(NCCCCCC)nc(NCCN(C)C)n1 [S9N6 D1] | 16.1%
65 | CCCCCCCCCSc1nc(NCCCCCC)nc(NCCN2CCOCC2)n1 [S9N6 D2] | 2.1%
66 | CCCCCCCCCSc1nc(NCCCCCC)nc(NCCN2CCCC2)n1 [S9N6 D3] | 27.0%
67 | CCCCCCCCCSc1nc(NCCCCCC)nc(NCCN2CCCCC2)n1 [S9N6 D4] | 20.7%
68 | CCCCCCCCCSc1nc(NCCCCCC)nc(NCCN2CCN(C)CC2)n1 [S9N6 D5] | 22.4%

From US20230123334A1, “AMINO LIPID COMPOUND, PREPARATION METHOD THEREFOR, AND APPLICATION THEREOF” (SHENZHEN SHENXIN BIOTECHNOLOGY CO., LTD., priority 2020, published 2023)
